Measured values published in US20230413824A1, “AGROCHEMICAL COMPOSITION COMPRISING 3-SUBSTITUTED PHENYLAMIDINE COMPOUNDS AND USE THEREOF” (PI INDUSTRIES LIMITED, priority 2020, published 2023).

Experiments:
Type in all cases: in vivo
Phakopsora pachyrhizi = Phakopsora pachyrhizi test in soybean (preventive, glasshouse); conditions: single compound
Septoria nodorum = assay: Parastagonospora nodorum/Septoria nodorum/Stagnospora nodorum test in wheat (preventive, glasshouse); conditions: single compound
Summary of the method: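 Greenhouse-raised young wheat sprayed preventively at stated rates, inoculated one day later with 2.8×10^6 Stagnospora nodorum inoculum, held at 22-25° C and 90-100% RH. Disease severity (0-100%) rated 3, 7 and 10 days after application; % control relative to untreated plants, with phytotoxicity also recorded.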

Erysiphe cichoracearum = Erysiphe cichoracearum test in cucumber (preventive, glasshouse); conditions: single compound
Pyricularia oryzae = assay: whole plant or invertebrate; conditions: single compound, preventive spray, rice
Alternaria solani = Alternaria solani test in tomato (preventive, glasshouse)
Botrytis cinerea = Botrytis cinerea test in tomato (preventive, glasshouse); conditions: single compound, Conc. 0.1 ppm; preventive spray on tomato, % control vs untreated

## CO/C=C(/C(=O)OC)c1ccccc1COc1cccc(C(F)(F)F)n1 [Picoxystrobin, picoxystrobin]
Phakopsora pachyrhizi; 0.05 ppm, preventive spray on soybean
  Observed Efficacy (%): 20%
Phakopsora pachyrhizi; 0.1 ppm, preventive spray on soybean
  Observed Efficacy (%): 28%
Phakopsora pachyrhizi; Conc. 0.05 ppm, soybean, preventive, Table D4
  Observed Efficacy (%): 20%
Phakopsora pachyrhizi; Conc. 0.05 ppm, soybean, preventive, Table D5
  Observed Efficacy (%): 20%
Phakopsora pachyrhizi; Conc. 0.1 ppm, soybean, preventive, Table D4
  Observed Efficacy (%): 28%
Phakopsora pachyrhizi; Conc. 0.1 ppm, soybean, preventive, Table D5
  Observed Efficacy (%): 28%
Septoria nodorum; 0.05 ppm
  Observed Efficacy (%): 12%
Septoria nodorum; 0.1 ppm
  Observed Efficacy (%): 26%
Erysiphe cichoracearum; 0.05 ppm, cucumber, preventive
  Observed Efficacy (%): 19%
Erysiphe cichoracearum; 0.05 ppm, preventive spray on cucumber
  Observed Efficacy (%): 19%
Erysiphe cichoracearum; 0.1 ppm, cucumber, preventive
  Observed Efficacy (%): 43%
Erysiphe cichoracearum; 0.1 ppm, preventive spray on cucumber
  Observed Efficacy (%): 43%
Pyricularia oryzae; Conc. 0.05 ppm
  Observed Efficacy: 16%
Pyricularia oryzae; Conc. 0.1 ppm
  Observed Efficacy: 33%
Alternaria solani; Table B3, single compound, Conc. 0.05 ppm, preventive
  Observed Efficacy (%): 23%
Alternaria solani; Table B3, single compound, Conc. 0.1 ppm, preventive
  Observed Efficacy (%): 26%
Alternaria solani; single compound, 0.05 ppm, preventive
  Observed Efficacy (%): 23%
Alternaria solani; single compound, 0.05 ppm, preventive spray
  Observed Efficacy (%): 23%
Alternaria solani; single compound, 0.1 ppm, preventive
  Observed Efficacy (%): 26%
Alternaria solani; single compound, 0.1 ppm, preventive spray
  Observed Efficacy (%): 26%
Botrytis cinerea
  Observed Efficacy (%): 38%
